The record followed here is US12529022B2, “Human organ-on-chip models for predictive screening” (The Trustees of Columbia University in the City of New York, priority 2018, dated 2026).

Each structure is given as a SMILES string. Where a name gives a salt, the structure may show the parent alone.

Series [1] deals with human cardiac OOC.
Text: (§2) The pillars subjected the hydrogel to mechanical loading designed to mimic that in the native heart. The hydrogel compaction caused passive tension in the tissues as they're stretched and aligned between the pillars. Synchronous contractions forced the tissues to work against the pillars. […] Cardiac model development: Cardiac tissues were formed by cell encapsulation in fibrin hydrogel. Human iPS cell-derived cardiomyocytes at day 16 of differentiation were combined with normal human dermal fibroblasts (NHDF; Lonza) at a ratio of 75% hiPSC-CMs and 25% NHDF, for a total of 1 million cells per tissue. The hydrogel was formed by mixing 33 mg/mL of fibrinogen from human plasma (Sigma-Aldrich) with 25 U/mL of thrombin from human plasma (Sigma-Aldrich), on a 84:16 ratio. The hydrogel mixed with the cells was dispensed into each well of the tissues formation reservoir and allowed to polymerize at 37° C. for 15 min before adding RPMI Medium 1640 supplemented with B-27™ containing 0.2 mg/ml aprotinin (Sigma-Aldrich). Subsequently, medium was changed every other day supplemented with 0.2 mg/ml aprotinin for the first 7 days. After 7 days, tissues were used in experiments. […] Contractility videos: Tissue contractility was measured by tracking the change in tissue area as a function of time. […] Absolute differences in cell area from the baseline frame were then calculated to create a time course of cell area dynamics as a function of time. The resulting time courses were analysed using a native MATLAB (MATHWorks) automated peak finding algorithm to determine locations of maximum cell contraction indicated by the locations of local maxima in the time courses. Beat period lengths were determined from the length of time between the pairs of local maxima. Beat frequencies were determined by inverting beat periods; relaxation times were measured from the length of time required for the tissue to relax from the peak contraction amplitude of the local maxima to the calculated relaxation amplitude.
The next series deals with all tissue types. Briefly: Doxorubicin study in integrated multi-tissue platform: common toxicity readouts. To be noted: 72 hours after 30 μM dose. It is filed as cell-based, human.
The next series relates to cardiac compartment. As to the kind of experiment: Doxorubicin study: cardiac compartment function. It is filed as cell-based, human. The conditions noted are these: 30 μM, 72 hours.
Another series concerns Liver tissues. Briefly: Doxorubicin study: liver functionality. The conditions noted are these: 30 μM, 72 hours, only in the integrated experimental groups. Format: cell-based, human. How it is done: (§1) Common tissue responses were measured for each tissue individually, 72 hours after their assembly into the integrated platform and exposure to 30 μM concentration of doxorubicin introduced into the circulatory perfusion. FIG. 61 illustrates the Doxorubicin (Dox) drug study design including four conditions tests (integrated control, integrated Dox, isolated control, isolated Dox).

A further series concerns Bone tissues. As to the kind of experiment: Doxorubicin study: bone remodeling and histology. The conditions noted are these: 30 μM, 72 hours. As to the method:
as §1

Another series has as its system skin tissues. Briefly: Doxorubicin study: skin barrier transport and TEER. Format: cell-based, human. The conditions noted are these: 30 μM, 72 hours, isolated and integrated comparable. As to the method:
as §1

Series [2] relates to human cardiac OOC. Briefly: cells. The conditions noted are these: read-out: EC50 of increase in beat frequency.
Text: as §2

For the compound `CCCCc1oc2ccccc2c1C(=O)c1cc(I)c(OCCN(CC)CC)c(I)c1` [amiodarone, amiodarone hydrochloride], the beating frequency entry with human cardiac OOC [1] (amiodarone 2.42 μM (FIG. 50 legend prints 2.42 M), over 48 hours) was “beating frequency decreased”.

With `Cn1c(=O)c2c(ncn2C)n(C)c1=O` [caffeine], the beat frequency entry in the series on human cardiac OOC [1] (caffeine 50 mM) is reported as “increase in beat frequency”.

In the case of `COc1cccc2c1C(=O)c1c(O)c3c(c(O)c1C2=O)C[C@@](O)(C(=O)CO)C[C@@H]3O[C@H]1C[C@H](N)[C@H](O)[C@H](C)O1` [doxorubicin, doxorubicin hydrochloride], in the series with all tissue types, the cell viability entry is “significant decreases”, the glucose consumption result was “significant decreases” and the mitochondrial activity entry is “significant decreases”. In addition, in the series on cardiac compartment, the “contractile and conductive behavior” value is “decreased contractile and conductive behavior”; the release of troponin result was “increased release of troponin”. In the series with Liver tissues, the albumin production entry is listed as “decreased albumin” and the urea production entry is “unaffected urea production”. Also, in the series with Bone tissues, the “TRAP activity (bone remodeling)” value is listed as “stable TRAP responses”. For the same compound, the “electrical resistance (TEER) of skin” value with skin tissues is “electrical resistance decreased”.

As for `CC(C)NCC(O)c1ccc(O)c(O)c1` (stereo not drawn) [isoproterenol, isoproterenol hydrochloride], the EC50 in the series on human cardiac OOC [2] turned out to be 30 nM.

The EC50 is the concentration that produces a half-maximal response.
